Measured values taken from patent US9738634B2, “Heterocyclic amide compound and herbicide” (SYNGENTA PARTICIPATIONS AG, priority 2013, dated 2017).

How the values were obtained:
Type in all cases: in vivo
[1] = system: oval-leafed pondweed; assay: Test Example 2: weedkilling efficacy, growth period weed treatment in the submerged state; C: oval-leafed pondweed; settings: treatment dosage 108.36 g/ha
In short: (§1)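 First, alluvial soil in pots is flooded to 4 cm and mixed seed is sown. Next, plants grow in a greenhouse at 25 to 30° C until the 1-2 leaf stage. Then diluted emulsion is applied onto the water surface at the given g/ha rate, and injury is assessed after 3 weeks.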

[2] = system: Italian ryegrass; assay: Test Example 3: weedkilling efficacy through soil treatment; I: Italian ryegrass; settings: treatment dosage 135.45 g/ha
In short: (§2)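 Crop and weed responses were judged three weeks after a uniform surface spray of the water-diluted emulsion at the given g/ha rate. Seeds sat beneath about 1.5 cm of sterilized diluvial soil, and boxes stood in a greenhouse at 25 to 30° C.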

[3] = system: bulrush; assay: Test Example 1: weedkilling efficacy, preemergent weed treatment in the submerged state; B: bulrush; settings: treatment dosage 108.36 g/ha
In short: (§3)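 Alluvial soil in Wagner pots flooded to 4 cm; barnyard grass, bulrush and oval-leafed pondweed seeds sown, then 2.5-leaf rice seedlings transplanted. Same day, emulsified compound diluted in water to set g/ha dosages and applied to water surface; greenhouse 25–30 °C, effect scored by criteria after 3 weeks.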

[4] = system: barnyard grass; assay: Test Example 2: weedkilling efficacy, growth period weed treatment in the submerged state; A: barnyard grass; settings: treatment dosage 108.36 g/ha
In short: as §1

[5] = system: chickweed; assay: Test Example 4: weedkilling efficacy by foliar treatment; N: chickweed; settings: treatment dosage 135.45 g/ha
Description: (§4) Testing of Weedkilling Efficacy by Foliar Treatment
(§5) Sterilized diluvial soil was introduced into 21 cm long, 13 cm wide, 7 cm deep plastic boxes, and seeds of crabgrass, green foxtail, barnyard grass, wild oat, black-grass, Italian ryegrass, common wind-grass, Indian mallow, redroot pigweed, fig-leafed goosefoot, chickweed, catchweed, birds-eye speedwell, corn, soybean, rice, wheat, beet and rapeseed were each spot-sown, and covered with about 1.5 cm of soil, then the plants were grown in a greenhouse at 25 to 30° C.
(§6) After they had grown for 14 days, emulsions of compounds of the present invention prepared according to compounding example 2 were diluted with water to give the specified dosages, and applied uniformly onto the stem and leaf parts with a small sprayer. 3 weeks after the pesticide treatment the effect on each type of plant was investigated on the basis of the assessment criteria of test example 1.
(§7) A: barnyard grass, B: bulrush, C: oval-leafed pondweed, D: crabgrass, E: green foxtail, F: barnyard grass, G: wild oat, H: black-grass, I: Italian ryegrass, J: common wind-grass, K: Indian mallow, L: redroot pigweed, M: fig-leafed goosefoot, N: chickweed, O: catchweed, p: birds-eye speedwell, a: transplanted rice, b: directly sown rice, c: corn, d: soybean, e: wheat, f: beet, g: rapeseed
(§8) Further, pesticide dosage (g/ha) indicates the concentration regulated such that treatment was with only the stated number of grams (g), when calculated per hectare (ha).

[6] = system: fig-leafed goosefoot; assay: Test Example 3: weedkilling efficacy through soil treatment; M: fig-leafed goosefoot; settings: treatment dosage 135.45 g/ha
In short: as §2

[7] = system: black-grass; assay: Test Example 3: weedkilling efficacy through soil treatment; H: black-grass; settings: treatment dosage 135.45 g/ha
In short: as §2

[8] = system: beet; assay: Test Example 4: foliar treatment, effect on crop; f: beet; settings: treatment dosage 135.45 g/ha
Description: as §4, §5, §6, §7, §8

[9] = system: birds-eye speedwell; assay: Test Example 4: weedkilling efficacy by foliar treatment; p: birds-eye speedwell; settings: treatment dosage 135.45 g/ha
Description: as §4, §5, §6, §7, §8

[10] = system: barnyard grass; assay: Test Example 1: weedkilling efficacy, preemergent weed treatment in the submerged state; A: barnyard grass; settings: treatment dosage 108.36 g/ha
In short: as §3

[11] = system: chickweed; assay: Test Example 3: weedkilling efficacy through soil treatment; N: chickweed; settings: treatment dosage 135.45 g/ha
In short: as §2

[12] = system: bulrush; assay: Test Example 2: weedkilling efficacy, growth period weed treatment in the submerged state; B: bulrush; settings: treatment dosage 108.36 g/ha
In short: as §1

[13] = system: Indian mallow; assay: Test Example 4: weedkilling efficacy by foliar treatment; K: Indian mallow; settings: treatment dosage 135.45 g/ha
Description: as §4, §5, §6, §7, §8

[14] = system: catchweed; assay: Test Example 4: weedkilling efficacy by foliar treatment; O: catchweed; settings: treatment dosage 135.45 g/ha
Description: as §4, §5, §6, §7, §8

[15] = system: black-grass; assay: Test Example 4: weedkilling efficacy by foliar treatment; H: black-grass; settings: treatment dosage 135.45 g/ha
Description: as §4, §5, §6, §7, §8

[16] = system: green foxtail; assay: Test Example 3: weedkilling efficacy through soil treatment; E: green foxtail; settings: treatment dosage 135.45 g/ha
In short: as §2

[17] = system: crabgrass; assay: Test Example 4: weedkilling efficacy by foliar treatment; D: crabgrass; settings: treatment dosage 135.45 g/ha
Description: as §4, §5, §6, §7, §8

[18] = system: green foxtail; assay: Test Example 4: weedkilling efficacy by foliar treatment; E: green foxtail; settings: treatment dosage 135.45 g/ha
Description: as §4, §5, §6, §7, §8

[19] = system: corn; assay: Test Example 4: foliar treatment, effect on crop; c: corn; settings: treatment dosage 135.45 g/ha
Description: as §4, §5, §6, §7, §8

[20] = system: crabgrass; assay: Test Example 3: weedkilling efficacy through soil treatment; D: crabgrass; settings: treatment dosage 135.45 g/ha
In short: as §2

[21] = system: Italian ryegrass; assay: Test Example 4: weedkilling efficacy by foliar treatment; I: Italian ryegrass; settings: treatment dosage 135.45 g/ha
Description: as §4, §5, §6, §7, §8

[22] = system: wheat; assay: Test Example 4: foliar treatment, effect on crop; e: wheat; settings: treatment dosage 135.45 g/ha
Description: as §4, §5, §6, §7, §8

[23] = system: directly sown rice; assay: Test Example 3: soil treatment, effect on crop; b: directly sown rice; settings: treatment dosage 135.45 g/ha
In short: as §2

[24] = system: transplanted rice; assay: Test Example 1: preemergent weed treatment in the submerged state, effect on crop; a: transplanted rice; settings: treatment dosage 108.36 g/ha
In short: as §3

[25] = system: soybean; assay: Test Example 4: foliar treatment, effect on crop; d: soybean; settings: treatment dosage 135.45 g/ha
Description: as §4, §5, §6, §7, §8

[26] = system: soybean; assay: Test Example 3: soil treatment, effect on crop; d: soybean; settings: treatment dosage 135.45 g/ha
In short: as §2

[27] = system: fig-leafed goosefoot; assay: Test Example 4: weedkilling efficacy by foliar treatment; M: fig-leafed goosefoot; settings: treatment dosage 135.45 g/ha
Description: as §4, §5, §6, §7, §8

[28] = system: directly sown rice; assay: Test Example 4: foliar treatment, effect on crop; b: directly sown rice; settings: treatment dosage 135.45 g/ha
Description: as §4, §5, §6, §7, §8

[29] = system: oval-leafed pondweed; assay: Test Example 1: weedkilling efficacy, preemergent weed treatment in the submerged state; C: oval-leafed pondweed; settings: treatment dosage 108.36 g/ha
In short: as §3

[30] = system: corn; assay: Test Example 3: soil treatment, effect on crop; c: corn; settings: treatment dosage 135.45 g/ha
In short: as §2

[31] = system: redroot pigweed; assay: Test Example 4: weedkilling efficacy by foliar treatment; L: redroot pigweed; settings: treatment dosage 135.45 g/ha
Description: as §4, §5, §6, §7, §8

[32] = system: wheat; assay: Test Example 3: soil treatment, effect on crop; e: wheat; settings: treatment dosage 135.45 g/ha
In short: as §2

[33] = system: birds-eye speedwell; assay: Test Example 3: weedkilling efficacy through soil treatment; p: birds-eye speedwell; settings: treatment dosage 135.45 g/ha
In short: as §2

[34] = system: Indian mallow; assay: Test Example 3: weedkilling efficacy through soil treatment; K: Indian mallow; settings: treatment dosage 135.45 g/ha
In short: as §2

[35] = system: redroot pigweed; assay: Test Example 3: weedkilling efficacy through soil treatment; L: redroot pigweed; settings: treatment dosage 135.45 g/ha
In short: as §2

CC1=C(c2ccccc2)C(=O)N(C(C)(C)C(=O)Nc2cccc(C)n2)CO1 [B-2-53]
C (oval-leafed pondweed) weedkilling efficacy grade [1]: 4 (weed kill ratio 70% or more, less than 90%) | I (Italian ryegrass) weedkilling efficacy grade [2]: 5 (weed kill ratio 90% or more, (practically complete withering)) | B (bulrush) weedkilling efficacy grade [3]: 5 (weed kill ratio 90% or more, (practically complete withering)) | A (barnyard grass) weedkilling efficacy grade [4]: 3 (weed kill ratio 40% or more, less than 70%) | N (chickweed) weedkilling efficacy grade [5]: 1 (weed kill ratio 5% or more, less than 20%) | M (fig-leafed goosefoot) weedkilling efficacy grade [6]: 4 (weed kill ratio 70% or more, less than 90%) | H (black-grass) weedkilling efficacy grade [7]: 5 (weed kill ratio 90% or more, (practically complete withering)) | f (beet) effect on crop grade [8]: 0 (weed kill ratio 5% or less (practically no effect)) | P (birds-eye speedwell) weedkilling efficacy grade [9]: 4 (weed kill ratio 70% or more, less than 90%) | A (barnyard grass) weedkilling efficacy grade [10]: 5 (weed kill ratio 90% or more, (practically complete withering)) | N (chickweed) weedkilling efficacy grade [11]: 0 (weed kill ratio 5% or less (practically no effect)) | B (bulrush) weedkilling efficacy grade [12]: 5 (weed kill ratio 90% or more, (practically complete withering)) | K (Indian mallow) weedkilling efficacy grade [13]: 4 (weed kill ratio 70% or more, less than 90%) | O (catchweed) weedkilling efficacy grade [14]: 3 (weed kill ratio 40% or more, less than 70%) | H (black-grass) weedkilling efficacy grade [15]: 5 (weed kill ratio 90% or more, (practically complete withering)) | E (green foxtail) weedkilling efficacy grade [16]: 5 (weed kill ratio 90% or more, (practically complete withering)) | D (crabgrass) weedkilling efficacy grade [17]: 5 (weed kill ratio 90% or more, (practically complete withering)) | E (green foxtail) weedkilling efficacy grade [18]: 5 (weed kill ratio 90% or more, (practically complete withering)) | c (corn) effect on crop grade [19]: 1 (weed kill ratio 5% or more, less than 20%) | D (crabgrass) weedkilling efficacy grade [20]: 5 (weed kill ratio 90% or more, (practically complete withering)) | I (Italian ryegrass) weedkilling efficacy grade [21]: 5 (weed kill ratio 90% or more, (practically complete withering)) | e (wheat) effect on crop grade [22]: 1 (weed kill ratio 5% or more, less than 20%) | b (directly sown rice) effect on crop grade [23]: 3 (weed kill ratio 40% or more, less than 70%) | a (transplanted rice) effect on crop grade [24]: 0 (weed kill ratio 5% or less (practically no effect)) | d (soybean) effect on crop grade [25]: 4 (weed kill ratio 70% or more, less than 90%) | d (soybean) effect on crop grade [26]: 0 (weed kill ratio 5% or less (practically no effect)) | M (fig-leafed goosefoot) weedkilling efficacy grade [27]: 3 (weed kill ratio 40% or more, less than 70%) | b (directly sown rice) effect on crop grade [28]: 4 (weed kill ratio 70% or more, less than 90%) | C (oval-leafed pondweed) weedkilling efficacy grade [29]: 5 (weed kill ratio 90% or more, (practically complete withering)) | c (corn) effect on crop grade [30]: 0 (weed kill ratio 5% or less (practically no effect)) | L (redroot pigweed) weedkilling efficacy grade [31]: 4 (weed kill ratio 70% or more, less than 90%) | e (wheat) effect on crop grade [32]: 2 (weed kill ratio 20% or more, less than 40%) | P (birds-eye speedwell) weedkilling efficacy grade [33]: 5 (weed kill ratio 90% or more, (practically complete withering)) | K (Indian mallow) weedkilling efficacy grade [34]: 0 (weed kill ratio 5% or less (practically no effect)) | L (redroot pigweed) weedkilling efficacy grade [35]: 3 (weed kill ratio 40% or more, less than 70%)
